# Test results reported in PMC3608651, “A Broad Profile of Co-Dominant Epitopes Shapes the Peripheral Mycobacterium tuberculosis Specific CD8+ T-Cell Immune Response in South African Patients with Active Tuberculosis” (PLoS ONE, 2013).
# Read-outs that look alike come from different tables or passages of the source.
# Legend:
# Type in all cases: binding
# [1] = biological target: T1, HLA-A*68:01 (Homo sapiens, UniProt P04439, A269V/D185E/E176V/E277Q/E87N/F33Y/G231S/I121M/I166T/I218V/L180W/L300P/L318F/N151K/P208A/P217A/Q86R/R169H/T345S)
# [2] = biological target: T1, HLA-A*68:01; settings: time points 0-8 h
# [3] = biological target: HLA-B*07:02 (Homo sapiens, UniProt P01889); settings: percent relative the binding of positive control peptide […]; duplicated experiments; positive binder >40%
# [4] = biological target: T2, HLA-A*30:02 (Homo sapiens, UniProt P04439, D101N/D140H/D185E/E176R/F33S/G80R/H175R/K168Q/Q94H/R138E/R41S/V100E); settings: duplicated experiments, positive binder >40%
# [5] = biological target: T2, HLA-A*30:02
# [6] = biological target: T1, HLA-A*68:01; settings: duplicated experiments, positive binder >40%
# [7] = biological target: T2, HLA-A*30:02; settings: time points 0-8 h
# [8] = biological target: HLA-A*30:01 (Homo sapiens, UniProt P04439, D140H/D185E/E176W/F33S/G80R/H175R/K168Q/R138E/R41S); settings: duplicated experiments, positive binder >40%
# [9] = biological target: HLA-C*07:01 (Homo sapiens, UniProt P10321, K90N/S123Y); settings: duplicated experiments, positive binder >40%
# [10] = biological target: T3, HLA-B*58:01 (Homo sapiens, UniProt P01889, A329T/C349S/D201E/D98Y/E176V/E187L/E204Q/E69T/G107R/I218V/I90N/K202T/L105A/L119I/N104I/N87E/Q89R/Q94S/R106L/R155S/R180L/R86G/S101N/S121R/S35A/S48A/T118I/V127L/V306I/V36M/Y140S/Y91M); settings: duplicated experiments, positive binder >40%
# [11] = biological target: HLA-A*24:02 (Homo sapiens, UniProt P04439, D101N/D140Y/D185E/E176V/E190D/F33S/G103R/G107R/I119L/I121M/I306V/K335N/L105A/L180Q/L300P/N151K/N90K/Q86E/Q94H/R106L/R138H/R89G/T104I/T345S/V100E/W191G/Y123F); settings: duplicated experiments, positive binder >40%
# [12] = biological target: HLA-A*02:01 (Homo sapiens, UniProt P04439, D140Y/D185E/D98H/E176V/E277Q/G131W/G231S/I119V/I121R/I166T/I218V/L300P/L318F/N151K/N90K/P208A/P217A/Q86G/Q94H/R138H/R169H/T345S); settings: plate-bound monomer 0.5 µg/ml, duplicated experiments, positive binder >40%
# [13] = biological target: T3, HLA-B*58:01
# [14] = biological target: T3, HLA-B*58:01; settings: time points 0-8 h
# [15] = percent relative the binding of positive control peptide […]
# [16] = peptide titrated 10−4 to 10−9 M
# [17] = percent relative the binding of positive control peptide KIQNFRVYY
# [18] = percent relative the binding of positive control peptide KTGGPIYKR
# [19] = percent relative the binding of positive control peptide KTKDIVNGL
# [20] = percent relative the binding of positive control peptide KYFDEHYEY
# [21] = percent relative the binding of positive control peptide IAMESIVIW
# [22] = percent relative the binding of positive control peptide RYLKDQQLL
# [23] = percent relative the binding of positive control peptide FLPSDFFPSV
Substance,Aff A*68:01 (ED50) [1],O-rate A*68:01 (t1/2) [2] [h],Bind B*07:02 [3] [%],"Bind A*30:02 [4, 15] [%]","Bind A*68:01 [6, 15] [%]","Bind A*30:01 [8, 15] [%]","Bind C*07:01 [9, 15] [%]","Bind B*58:01 [10, 15] [%]","Bind A*24:02 [11, 15] [%]","Bind A*02:01 [12, 15] [%]",further results
AMGDAGGYK,5e-07 M,3.2,8,80,94,28,0,0,0,31,Aff A*30:02 (ED50) [5]: 0.7 µM; O-rate A*30:02 (t1/2) [7]: 1.6 h
ANTMAMMAR [Rv0288_78–86],3e-06 M,2.4,–,–,147,–,12,0,–,–,–
AVFNFPPNG,8E -09 M,0.2,0,101,81,21,1,33,23,69,Aff A*30:02 (ED50) [5]: 3 µM; O-rate A*30:02 (t1/2) [7]: 0.3 h
AVYLLDGLR,2E -07 M,1.1,0,115,114,1,4,0,8,24,Aff A*30:02 (ED50) [5]: 0.2 µM; O-rate A*30:02 (t1/2) [7]: 1.2 h
DW YSPACGK,2E -07 M,0.6,0,0,136,11,0,0,0,10,–
EAAASAIQG [Rv3875_12–20],–,0.8,5,–,–,–,–,–,–,–,"Aff A*68:01 (ED50) [1, 16]: 8e-07 M; Bind A*30:02 [4, 17]: 0%; Bind A*68:01 [6, 18]: 59%; Bind A*30:01 [8, 19]: 0%; Bind C*07:01 [9, 20]: 0%; Bind B*58:01 [10, 21]: 0%; Bind A*24:02 [11, 22]: 0%; Bind A*02:01 [12, 23]: 0%"
EANTMAMMA [Rv0288_77–85],0.0007 M,1.9,–,–,83,–,3,0,–,–,–
EAYQGVQQK [Rv3875_49–57],–,7.5,10,–,–,–,–,–,–,–,"Aff A*68:01 (ED50) [1, 16]: 4e-08 M; Bind A*30:02 [4, 17]: 0%; Bind A*68:01 [6, 18]: 74%; Bind A*30:01 [8, 19]: 0%; Bind C*07:01 [9, 20]: 0%; Bind B*58:01 [10, 21]: 0%; Bind A*24:02 [11, 22]: 0%; Bind A*02:01 [12, 23]: 0%"
EQAALQSAW [Rv0288_35–43],1e-05 M,2.8,–,–,47,–,0,79,–,–,Aff B*58:01 (ED50) [13]: 6 µM; O-rate B*58:01 (t1/2) [14]: 0.8 h
ETFLTSELP,7e-07 M,0.1,5,0,103,4,0,16,2,25,–
ITYQAWQAQ [Rv0288_49–57],9e-06 M,1.9,–,–,56,–,0,78,–,–,Aff B*58:01 (ED50) [13]: 0.2 µM; O-rate B*58:01 (t1/2) [14]: 0.5 h
LPQW LSANR,6E -08 M,4.1,31,0,167,29,0,0,26,6,–
MAMMARDTA [Rv0288_81–89],5e-06 M,2.0,–,–,96,–,19,23,–,–,–
NTMAMMARD [Rv0288_79–87],7e-05 M,2.3,–,–,67,–,0,0,–,–,–
QAWQAQWNQ [Rv0288_52–60],7e-06 M,3.0,–,–,55,–,0,45,–,–,Aff B*58:01 (ED50) [13]: 4 µM; O-rate B*58:01 (t1/2) [14]: 0.5 h
QSSFYSDWY,1E -06 M,0.4,0,90,82,0,22,39,0,0,Aff A*30:02 (ED50) [5]: 0.6 µM; O-rate A*30:02 (t1/2) [7]: 2.2 h
RDTAEAAKW [Rv0288_86–94],1e-05 M,4.3,–,–,65,–,0,45,–,–,Aff B*58:01 (ED50) [13]: 5 µM; O-rate B*58:01 (t1/2) [14]: 2.6 h
SSFYSDWYS,1e-07 M,0.1,0,72,103,0,1,0,0,53,–
TMAMMARDT [Rv0288_80–88],6e-05 M,2.7,–,–,47,–,0,0,–,–,–
WGAQLNAMK,3E -07 M,2.4,0,67,153,0,5,0,0,7,–
